Measured values from the supplement of paper PMC11061612.

What was measured:
IMR-5 (Neuroblastoma) = assay: combination Emax (second highest fraction inhibited in the dose matrix, 72 h); higher = more inhibition; extreme values may be limits of the assay
How it was run: (§1)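 After 24 hours at 37°C and 5% CO2 in 1536-well plates, cells in DMEM/F12 or RPMI plus 10% FBS received two-drug dose matrices for 72 hours. Viability came from CellTiter-Glo 2.0 luminescence and was scaled as inhibition, anchored at 0 by vehicle wells and at 1 by blank wells. Combination Emax is taken as the second-highest inhibition in the matrix, and Bliss excess as the observed combination effect less EA + EB − EA·EB, with EA and EB the single-agent effects.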

[1] = test system: LOU-NH91 (Squamous Cell Lung Carcinoma); assay: as above
How it was run: as §1

A704 (Kidney Carcinoma) = assay: as above
How it was run: as §1

[2] = test system: KYSE-150 (Esophageal Squamous Cell Carcinoma); assay: as above
How it was run: as §1

[3] = test system: KINGS-1 (Low Grade Glioma); assay: as above
How it was run: as §1

[4] = test system: KYSE-50 (Esophageal Squamous Cell Carcinoma); assay: as above
How it was run: as §1

[5] = test system: EMC-BAC-2 (Non-Small Cell Lung Carcinoma); assay: as above
How it was run: as §1

[6] = test system: MFE-319 (Endometrial Carcinoma); assay: as above
How it was run: as §1

[7] = test system: NCI-N87 (Gastric Carcinoma); assay: as above
How it was run: as §1

[8] = test system: HSC-2 (Oral Cavity Carcinoma); assay: as above
How it was run: as §1

RPMI-7951 (Melanoma) = assay: as above
How it was run: as §1

[9] = test system: LC4-1 (B-Lymphoblastic Leukemia); assay: as above
How it was run: as §1

EW-3 (Ewing's Sarcoma) = assay: as above
How it was run: as §1

[10] = test system: JHH-7 (Hepatocellular Carcinoma); assay: Bliss excess, mean over the matrix (fraction); higher = more synergy
How it was run: as §1

[11] = test system: NCI-H2347 (Lung Adenocarcinoma); assay: as above
How it was run: as §1

[12] = test system: ASH-3 (Thyroid Gland Carcinoma); assay: as above
How it was run: as §1

[13] = test system: KP-2 (Pancreatic Carcinoma); assay: as above
How it was run: as §1

[14] = test system: SCC-3 (B-Cell Non-Hodgkin's Lymphoma); assay: as above
How it was run: as §1

[15] = test system: HSC-2 (Oral Cavity Carcinoma); assay: as above
How it was run: as §1

[16] = test system: KLE (Endometrial Carcinoma); assay: as above
How it was run: as §1
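For Bliss excess, mean over the matrix in this document: after 72 h of two-drug dosing.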

SMILES	combination Emax (IMR-5 (Neuroblastoma))	combination Emax [1]	combination Emax (A704 (Kidney Carcinoma))	combination Emax [2]	combination Emax [3]	combination Emax [4]	combination Emax [5]	combination Emax [6]	combination Emax [7]	combination Emax [8]	combination Emax (RPMI-7951 (Melanoma))	combination Emax [9]	combination Emax (EW-3 (Ewing's Sarcoma))	Bliss excess [10]	Bliss excess [11]	Bliss excess [12]	Bliss excess [13]	Bliss excess [14]	Bliss excess [15]	Bliss excess [16]
C=CCn1c(=O)c2cnc(Nc3ccc(N4CCN(C)CC4)cc3)nc2n1-c1cccc(C(C)(C)O)n1 [AZD1775] + C1CN(CCC1(C(=O)N[C@@H](CCO)C2=CC=C(C=C2)Cl)N)C3=NC=NC4=C3C=CN4 [Capivasertib] (first compound max 3 µM, partner max 3 µM)	1	0.727	0.438	0.727	0.473	0.771	0.592	0.858	0.689	0.757	0.856	0.884	0.518	-0.0045	-0.0534	-0.0086	-0.0475	0.0613	0.0724	-0.0627
COc1nnc2ccc(N3CCC(c4ccc(OCCN5CCN(C)C(=O)[C@H]5C)cc4)CC3)nn12 [AZD5153] + CCN(CCO)CCCOc1ccc2c(Nc3cc(CC(=O)Nc4cccc(F)c4)[nH]n3)ncnc2c1 [AZD2811] (first compound max 1 µM, 7x7, partner max 1 µM)	1	0.743	0.497	0.688	0.193	0.651	0.738	0.535	0.547	0.662	0.613	0.963	0.626	-0.0696	-0.0549	-0.0284	-0.0065	0.0474	-0.0106	-0.0704
CS(=O)(=O)CCNCc1ccc(-c2ccc3ncnc(Nc4ccc(OCc5cccc(F)c5)c(Cl)c4)c3c2)o1 [Lapatinib] + C[C@@H](Oc1cc(-c2cnn(C3CCNCC3)c2)cnc1N)c1c(Cl)ccc(F)c1Cl [Crizotinib] (first compound max 10 µM, 7x7, partner max 10 µM)	0.976	0.924	0.905	0.984	0.921	0.93	0.909	0.511	0.978	0.998	0.975	0.963	0.91	-0.0055	-0.0421	-0.0207	-0.0353	0.0226	0.0028	-0.0215
CC1(C)CCC(CN2CCN(c3ccc(C(=O)NS(=O)(=O)c4ccc(NCC5CCOCC5)c([N+](=O)[O-])c4)c(Oc4cnc5[nH]ccc5c4)c3)CC2)=C(c2ccc(Cl)cc2)C1 [Venetoclax] + C=CCn1c(=O)c2cnc(Nc3ccc(N4CCN(C)CC4)cc3)nc2n1-c1cccc(C(C)(C)O)n1 [AZD1775] (first compound max 1 µM, partner max 1 µM)	0.924	0.436	0.463	0.496	0.567	0.647	0.404	0.858	0.8	0.833	0.731	1	0.819	0.0071	-0.0762	-0.0662	-0.0068	-0.0024	-0.0096	-0.0043
CCc1c2c(nc3ccc(O)cc13)-c1cc3c(c(=O)n1C2)COC(=O)[C@]3(O)CC [SN-38] + CN(C)CCCOc1ccc(-c2ccc3ncc4c(c3c2)n(C2CCOCC2)c(=O)n4C)cn1 [AZD0156] (first compound max 0.3 µM, 7x7, partner max 1 µM)	0.993	0.857	0.504	0.732	0.243	0.171	0.594	0.243	0.697	0.965	0.933	0.932	0.838	0.0084	-0.0118	0.0121	0.0154	0.0372	0.0085	-0.0034
COc1cccc(OCCCN)c1-c1cc(Nc2cnc(C#N)cn2)n[nH]1 [Prexasertib] + C[C@@H]1COCCN1C2=NC(=NC(=C2)C3(CC3)[S@](=N)(=O)C)C4=C5C=CNC5=NC=C4 [AZD6738] (first compound max 1 µM, 7x7, partner max 10 µM)	1	0.461	0.504	0.621	0.506	0.818	0.497	0.826	0.718	0.741	0.957	0.984	0.819	0.0381	-0.081	0.0902	-0.0324	-0.0201	0.0649	-0.0393
NC1(C(=O)N[C@@H](CCO)c2ccc(Cl)cc2)CCN(c2ncnc3[nH]ccc23)CC1 [Capivasertib] + COc1nnc2ccc(N3CCC(c4ccc(OCCN5CCN(C)C(=O)[C@H]5C)cc4)CC3)nn12 [AZD5153] (first compound max 10 µM, 7x7, partner max 1 µM)	0.857	0.656	0.645	0.796	0.349	0.525	0.769	0.962	0.772	0.874	0.865	0.99	0.837	0.0156	-0.033	0.0231	0.0358	0.0248	0.0456	-0.0329
